Experiments:
Assay type in all cases: in vivo
Conditions in all cases: evaluated after 13 days
Solanum nigrum (SOLNI) [1] = assay: Pre-emergence herbicide test, glasshouse, percentage damage
Outline: (§1)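 Percentage damage, recorded 13 days after treatment, is given as a five-point score (1=0-20%, 2=21-40%, 3=41-60%, 4=61-80%, 5=81-100%). Plants grown in soil pots under 24/16 °C, 14 h light and 65% humidity received a 500 g/ha spray (unless stated otherwise).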

Lolium perenne (LOLPE) [2] = assay: as above
Outline: as §1

[3] = system: Ipomoea hederacea (IPOHE); assay: as above
Outline: as §1

[4] = system: Amaranthus retoflexus (AMARE); assay: as above
Outline: as §1

Setaria faberi (SETFA) [5] = assay: as above
Outline: as §1

[6] = system: Echinochloa crus-galli (ECHCG); assay: as above
Outline: as §1

Solanum nigrum (SOLNI) [7] = assay: Post-emergence herbicide test, glasshouse, percentage damage
Outline: as §1

Lolium perenne (LOLPE) [8] = assay: as above
Outline: as §1

[9] = system: Ipomoea hederacea (IPOHE); assay: as above
Outline: as §1

[10] = system: Amaranthus retoflexus (AMARE); assay: as above
Outline: as §1

Setaria faberi (SETFA) [11] = assay: as above
Outline: as §1

[12] = system: Echinochloa crus-galli (ECHCG); assay: as above
Outline: as §1

Row | Compound | Pre-emergence Test SOLNI percentage damage (five point scale) (Solanum nigrum (SOLNI) [1]; rate 1000 g/ha) | Pre-emergence Test LOLPE percentage damage (five point scale) (Lolium perenne (LOLPE) [2]; rate 1000 g/ha) | Pre-emergence Test IPOHE percentage damage (five point scale) ([3]; rate 1000 g/ha) | Pre-emergence Test AMARE percentage damage (five point scale) ([4]; rate 1000 g/ha) | Pre-emergence Test SETFA percentage damage (five point scale) (Setaria faberi (SETFA) [5]; rate 1000 g/ha) | Pre-emergence Test ECHCG percentage damage (five point scale) ([6]; rate 1000 g/ha) | percentage damage caused to the plant, SOLNI (Solanum nigrum (SOLNI) [7]; 1000 g/ha) | percentage damage caused to the plant, LOLPE (Lolium perenne (LOLPE) [8]; 1000 g/ha) | percentage damage caused to the plant, IPOHE ([9]; 1000 g/ha) | percentage damage caused to the plant, AMARE ([10]; 1000 g/ha) | percentage damage caused to the plant, SETFA (Setaria faberi (SETFA) [11]; 1000 g/ha) | percentage damage caused to the plant, ECHCG ([12]; 1000 g/ha) | other results
1 | Fc1cc(Cl)cnc1Oc1cccc(F)c1-n1cc(C(F)(F)F)cn1 [Compound A58] | 5 (5=81-100%) | 5 (5=81-100%) | 5 (5=81-100%) | 5 (5=81-100%) | 5 (5=81-100%) | 5 (5=81-100%) | 5 (5=81-100%) | 5 (5=81-100%) | 5 (5=81-100%) | 5 (5=81-100%) | 5 (5=81-100%) | 4 (4=61-80%) | –
2 | Fc1cc(Cl)cnc1Oc1cccc(Br)c1-n1cc(C(F)(F)F)cn1 [Compound A59] | 5 (5=81-100%) | 4 (4=61-80%) | 2 (2=21-40%) | 5 (5=81-100%) | 5 (5=81-100%) | 2 (2=21-40%) | 5 (5=81-100%) | 4 (4=61-80%) | 5 (5=81-100%) | 5 (5=81-100%) | 5 (5=81-100%) | 3 (3=41-60%) | –
3 | Fc1cccc(Oc2cc(Cl)ccn2)c1-c1cc(C(F)F)no1 [Compound A60] | 1 (1=0-20%) | 1 (1=0-20%) | 1 (1=0-20%) | 5 (5=81-100%) | 1 (1=0-20%) | 2 (2=21-40%) | 4 (4=61-80%) | 1 (1=0-20%) | 2 (2=21-40%) | 4 (4=61-80%) | 2 (2=21-40%) | 1 (1=0-20%) | –
4 | Fc1cc(Cl)cnc1Oc1ccc(Br)c(Br)c1-n1cc(C(F)(F)F)cn1 [Compound A61] | 1 (1=0-20%) | 1 (1=0-20%) | 1 (1=0-20%) | 1 (1=0-20%) | 2 (2=21-40%) | 1 (1=0-20%) | 5 (5=81-100%) | 1 (1=0-20%) | 2 (2=21-40%) | 5 (5=81-100%) | 2 (2=21-40%) | 1 (1=0-20%) | –
5 | Fc1cccc(Oc2cc(OC(F)(F)F)ccn2)c1-c1cc(C(F)F)no1 [Compound A62] | 1 (1=0-20%) | 1 (1=0-20%) | 1 (1=0-20%) | 4 (4=61-80%) | 1 (1=0-20%) | 1 (1=0-20%) | 3 (3=41-60%) | 2 (2=21-40%) | 3 (3=41-60%) | 4 (4=61-80%) | 3 (3=41-60%) | 3 (3=41-60%) | –
6 | Fc1cc(Cl)cnc1Oc1ccccc1-c1csc(Cl)c1 [Compound A69] | 1 (1=0-20%) | 1 (1=0-20%) | 1 (1=0-20%) | 3 (3=41-60%) | 1 (1=0-20%) | 1 (1=0-20%) | 4 (4=61-80%) | 1 (1=0-20%) | 2 (2=21-40%) | 3 (3=41-60%) | 3 (3=41-60%) | 4 (4=61-80%) | –
7 | Fc1cc(Cl)cnc1Oc1ccccc1-c1ccsc1 [Compound A70] | 1 (1=0-20%) | 1 (1=0-20%) | 1 (1=0-20%) | 2 (2=21-40%) | 1 (1=0-20%) | 1 (1=0-20%) | 4 (4=61-80%) | 1 (1=0-20%) | 1 (1=0-20%) | 3 (3=41-60%) | 2 (2=21-40%) | 3 (3=41-60%) | –
8 | COc1csc(-c2ccccc2Oc2ncc(Cl)cc2F)c1 [Compound A71] | 1 (1=0-20%) | 1 (1=0-20%) | 1 (1=0-20%) | 5 (5=81-100%) | 1 (1=0-20%) | 1 (1=0-20%) | 5 (5=81-100%) | 1 (1=0-20%) | 1 (1=0-20%) | 4 (4=61-80%) | 2 (2=21-40%) | 1 (1=0-20%) | –
9 | Fc1cccc(Oc2ccc(C(F)F)cn2)c1-c1cc(C(F)F)no1 [Compound A77] | – | – | – | – | – | – | – | – | – | – | – | – | Pre-emergence Test SOLNI percentage damage (five point scale) (Solanum nigrum (SOLNI) [1]; rate 250 g/ha): 4 (4=61-80%); Pre-emergence Test LOLPE percentage damage (five point scale) (Lolium perenne (LOLPE) [2]; rate 250 g/ha): 2 (2=21-40%); Pre-emergence Test IPOHE percentage damage (five point scale) ([3]; rate 250 g/ha): 1 (1=0-20%); Pre-emergence Test AMARE percentage damage (five point scale) ([4]; rate 250 g/ha): 5 (5=81-100%); Pre-emergence Test SETFA percentage damage (five point scale) (Setaria faberi (SETFA) [5]; rate 250 g/ha): 5 (5=81-100%); Pre-emergence Test ECHCG percentage damage (five point scale) ([6]; rate 250 g/ha): 2 (2=21-40%); percentage damage caused to the plant, SOLNI (Solanum nigrum (SOLNI) [7]; 250 g/ha): 5 (5=81-100%); percentage damage caused to the plant, LOLPE (Lolium perenne (LOLPE) [8]; 250 g/ha): 2 (2=21-40%); percentage damage caused to the plant, IPOHE ([9]; 250 g/ha): 1 (1=0-20%); percentage damage caused to the plant, AMARE ([10]; 250 g/ha): 5 (5=81-100%); percentage damage caused to the plant, SETFA (Setaria faberi (SETFA) [11]; 250 g/ha): 5 (5=81-100%); percentage damage caused to the plant, ECHCG ([12]; 250 g/ha): 2 (2=21-40%)
10 | Fc1cccc(Oc2cc(C(F)(F)F)c(C(F)(F)F)cn2)c1-c1cc(C(F)F)no1 [Compound A78] | 1 (1=0-20%) | 1 (1=0-20%) | 1 (1=0-20%) | 1 (1=0-20%) | 2 (2=21-40%) | 1 (1=0-20%) | 4 (4=61-80%) | 1 (1=0-20%) | 1 (1=0-20%) | 3 (3=41-60%) | 1 (1=0-20%) | 1 (1=0-20%) | –
11 | Fc1cccc(Oc2nc(Cl)ccc2C(F)(F)F)c1-c1cc(C(F)F)no1 [Compound A80] | 1 (1=0-20%) | 1 (1=0-20%) | 1 (1=0-20%) | 2 (2=21-40%) | 1 (1=0-20%) | 1 (1=0-20%) | 5 (5=81-100%) | 1 (1=0-20%) | 1 (1=0-20%) | 5 (5=81-100%) | 1 (1=0-20%) | 1 (1=0-20%) | –
12 | Fc1cc(Cl)cnc1Oc1ccccc1-n1ncc(C(F)(F)F)n1 [Compound A81] | 3 (3=41-60%) | 1 (1=0-20%) | 2 (2=21-40%) | 5 (5=81-100%) | 4 (4=61-80%) | 4 (4=61-80%) | 4 (4=61-80%) | 1 (1=0-20%) | 2 (2=21-40%) | 5 (5=81-100%) | 4 (4=61-80%) | 4 (4=61-80%) | –

Source: US12227495B2, “Herbicidal compounds” (SYNGENTA CROP PROTECTION AG, priority 2018, dated 2025)
